Source: PubChem BioAssay (NCI)
“And” between values parts separate entries of the source, which are not always exact repeats. Equal values may be shown once.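 48-hour exposure; five concentrations; linearly interpolated endpoints. Here, GI50 denotes the concentration required for 50% inhibition of growth. Definition used: TGI = concentration required for complete inhibition of growth.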

Legend:
Assay in all cases: NCI tumour cell line growth inhibition, 48 h
[1] = system: OVCAR-5 ovarian
[2] = system: MOLT-4 leukemia
[3] = system: A549 NSCLC
[4] = system: SK-OV-3 ovarian
[5] = system: NCI-H23 lung
[6] = system: ACHN renal
[7] = system: HCT-15 colon
[8] = system: P388 leukemia
[9] = system: HOP-18 NSCLC
[10] = system: SW-620 colon
[11] = system: SNB-78 CNS
[12] = system: HL-60(TB) leukemia
[13] = system: CCRF-CEM leukemia
[14] = system: HS 578T breast
[15] = system: T-47D breast
[16] = system: CAKI-1 renal
[17] = system: IGROV1 ovarian
[18] = system: SK-MEL-5 melanoma
[19] = system: SR leukemia
[20] = system: RXF 393 renal
[21] = system: UACC-257 melanoma
[22] = system: P388/ADR leukemia
[23] = system: BT-549 breast
[24] = system: LOX IMVI melanoma
[25] = system: OVCAR-8 ovarian
[26] = system: HOP-62 NSCLC
[27] = system: K-562 leukemia
[28] = system: DMS 273 small cell lung
[29] = system: NCI/ADR-RES ovarian
[30] = system: UO-31 renal
[31] = system: MDA-MB-435
[32] = system: EKVX NSCLC
[33] = system: DU-145 prostate
[34] = system: 786-0 renal
[35] = system: OVCAR-4 ovarian
[36] = system: SF-268 CNS
[37] = system: SK-MEL-2 melanoma
[38] = system: SN12C renal
[39] = system: TK-10 renal
[40] = system: KM20L2 colon
[41] = system: U251 CNS
[42] = system: MDA-MB-231 breast
[43] = system: M14 melanoma
[44] = system: DMS 114 small cell lung
[45] = system: NCI-H460 lung
[46] = system: SF-539 CNS
[47] = system: SN12K1 renal
[48] = system: NCI-H226 lung
[49] = system: DLD-1 colon
[50] = system: SK-MEL-28 melanoma
[51] = system: PC-3 prostate
[52] = system: M19-MEL melanoma
[53] = system: OVCAR-3 ovarian
[54] = system: HCT-116 colon
[55] = system: MCF7 breast
[56] = system: HT29 colon

Q: Which results are given for `COc1ccc2c(c1)c1c(C)c3cnccc3c(C)c1n2CCCN`?
A: GI50 [1]: 94.6 nM; TGI [1]: 1120 nM and 542 nM; TGI [2]: 578 nM and 139 nM; GI50 [3]: 18.6 nM; GI50 [4]: 202 nM; TGI [4]: 1140 nM and 713 nM; TGI [5]: 601 nM; TGI [6]: 695 nM; GI50 [7]: 62.4 nM; TGI [7]: 473 nM and 955 nM; TGI [8]: 98.7 nM; TGI [9]: 1550 nM; GI50 [10]: < 10 nM; TGI [10]: 584 nM and 602 nM; TGI [11]: 653 nM; GI50 [12]: 450 nM and 238 nM; TGI [12]: 977 nM and 1020 nM; GI50 [13]: 47.2 nM and < 10 nM; TGI [14]: 953 nM; TGI [15]: 760 nM; GI50 [16]: 130 nM and 164 nM; TGI [16]: 491 nM and 806 nM; GI50 [17]: 136 nM; TGI [17]: 1320 nM and 1180 nM; GI50 [18]: 282 nM; TGI [18]: 746 nM and 1060 nM; TGI [19]: 118 nM; GI50 [20]: 145 nM; TGI [20]: 168 nM and 307 nM; TGI [21]: 1000 nM and 1690 nM; TGI [22]: 725 nM; TGI [23]: 2600 nM; TGI [24]: 241 nM; GI50 [25]: 105 nM; TGI [25]: 741 nM and 892 nM; GI50 [26]: 18.7 nM; TGI [26]: 984 nM and 279 nM; GI50 [27]: 71.2 nM and 13.9 nM; TGI [27]: 637 nM and 382 nM; TGI [28]: 382 nM; GI50 [29]: 217 nM; TGI [29]: 696 nM and 759 nM; GI50 [30]: 12.5 nM; TGI [30]: 1360 nM and 168 nM; TGI [31]: 190 nM; GI50 [32]: 106 nM; TGI [32]: 771 nM and 405 nM; TGI [33]: 389 nM; TGI [34]: 634 nM; GI50 [35]: 16.1 nM; TGI [35]: 394 nM and 143 nM; GI50 [36]: 63.3 nM and 57.7 nM; TGI [36]: 204 nM and 425 nM; GI50 [37]: 193 nM; TGI [37]: 815 nM and 393 nM; GI50 [38]: 170 nM; TGI [38]: 916 nM and 1010 nM; TGI [39]: 2750 nM; TGI [40]: 685 nM; GI50 [41]: 171 nM and 34 nM; TGI [41]: 721 nM and 383 nM; TGI [42]: 381 nM; TGI [43]: 330 nM; TGI [44]: 669 nM; GI50 [45]: 19.9 nM; TGI [45]: 282 nM and 135 nM; GI50 [46]: 175 nM; TGI [46]: 855 nM and 421 nM; TGI [47]: 239 nM; GI50 [48]: 558 nM and 416 nM; TGI [48]: 1300 nM and 1600 nM; TGI [49]: 741 nM; TGI [50]: 892 nM and 1100 nM; TGI [51]: 302 nM; TGI [52]: 633 nM; GI50 [53]: 119 nM; TGI [53]: 1180 nM and 495 nM; GI50 [54]: 65.9 nM; TGI [54]: 303 nM and 1060 nM; GI50 [55]: 16.2 nM; TGI [55]: 663 nM and 108 nM; GI50 [56]: < 11.4 nM; TGI [56]: 734 nM and 182 nM
